Measurements published in patent US20220073532A1, “INHIBITORS OF CGAS ACTIVITY AS THERAPEUTIC AGENTS” (BELLBROOK LABS, LLC, priority 2019, published 2022).
Entries after “also recorded” stand apart in the source; their conditions may differ. Read-outs that look alike come from different tables or passages of the source. Values belong to the molecule of their own block, whether it stands above or below them.

Columns and labels:
[1] = test system: IRF3-driven Luc expression in THP-1 Dual cells; experiment: THP-1 Dual IRF3-Luc reporter assay; type: cell-based, human; details: for inhibition of IRF3-dependent Luc expression: THP-1 Dual cells, induced by DNA or cGAMP; for cGAS-dependent cellular activity: human monocyte cell line THP-1
Experimental: (§1) IFN induction in human monocyte cell lines: The human monocyte cell line THP-1 gives a robust cGAS/STING-dependent type I IFN response and has been used extensively for studies on the pathway. Typically, cells are stimulated by transfection with dsDNA and gene expression is assessed using an ELISA for IFNβ, a reporter gene assay, and/or cGAS/STING pathway markers such as STING phosphorylation. These assays were validated using the TBK1 inhibitor, BX-795, which acts downstream of cGAS/STING, as a probe; THP-1 Dual cells (Invivogen, San Diego) are used as the reporter cell line for routine compound testing (FIG. 5A). These assays were optimized, including equalizing responses with transfected DNA and cGAMP and comparing responses between undifferentiated cells and cells that have been differentiated to macrophages (which show little difference). […] Stimulation of THP-1 Dual cells with damage-associated molecular pattern molecules (DAMPs) that act through pattern recognition receptors other than cGAS provides another way to confirm the specificity of putative cGAS inhibitors.

[2] = test system: NFκB-driven SEAP expression in THP-1 Dual cells; experiment: THP-1 Dual NFκB-SEAP reporter assay; type: cell-based, human
Experimental: as §1

THP1 cGAS KO cells = experiment: Specificity test in THP-Dual cGAS knockout cells; type: cell-based, human; details: LPS-stimulated, cGAS KO
Text: FIG. 5 includes (A) a schematic showing the THP1 dual-cell reporter system: secreted luciferase reports on IRF3-driven transcription; secreted alkaline phosphatase reports on NFκB-driven transcription, both downstream of cGAS/STING. THP-Dual cGAS knockout cells are used to test for non-specific effects; (B) a plot of the dose response for inhibition of Luc expression by Compound 15; (C) a plot of the dose response for inhibition of Luc expression by the TBK1 inhibitor, BX-795; and (D) a plot of the dose response for inhibition of SEAP expression by Compound 15.
as §1

cGAS [3] = target: T1, cGAS (Homo sapiens, UniProt Q8N884); experiment: SPR / biophysical binding to cGAS; details: SPR; read-out: Kd determined with SPR
Text: Following confirmation of hits at three concentrations and removal of compounds with visually evident reactivity or metabolic liabilities, non-stoichiometric inhibitors, aggregators, DNA intercalators and redox-active compounds were triaged (FIG. 2E) using established assays. […] Initial SAR based on more than 100 commercially available analogs provided additional confidence that the compounds were bonafide inhibitors, and informed potential scaffold hops and toleration for modifications.
A highly efficient platform for preclinical drug discovery (FIG. 3) was assembled, providing for development of cGAS inhibitors, which is improved by the addition of a powerful computational modeling method and in vivo PK studies (FIG. 3). […]
Biochemical and biophysical analysis: Potency and MOA studies, including Mn^2+ sensitivity, are performed using the cGAS enzymatic assay. […] Competition with ATP and GTP is assessed by comparing basal IC50 values to those in the presence of saturating ATP or GTP, and subsequently confirmed by measuring velocity vs. substrate at varying ATP or GTP levels. […]

cGAS [4] = target: T1, cGAS; experiment: cGAS enzymatic assay (FP/TR-FRET detection of cGAMP); type: biochemical; set-up: The cGAS assay was used to screen 100,000 compounds with full-length human cGAS; 6xHis; made in house
Experimental: Some exemplary compounds of the disclosure were tested for inhibition of cGAS (30 nM). The results are provided in Table 1 where “A” indicates an IC50 of less than 100 nM, “B” indicates an IC50 of greater than 100 nM and less than 500 nM, “C” indicates an IC50 of greater than 500 nM and less than 1 μM, “D” indicates an IC50 of greater than 1 μM and less than 10 μM, and “E” indicates an IC50 of greater than 10 μM.
A homogenous cGAS enzymatic assay was developed with fluorescence polarization (FP) and time-resolved Forster resonance energy transfer (TR-FRET) readouts (FIG. 2A-2D). The cGAS assay was used to screen 100,000 compounds with full-length human cGAS (FIG. 2E), resulting in the identification of the novel chemotype of the disclosure, two of which are further developed in a structure-driven hit-to-lead study (Table 3, below). The assay performance was robust, as indicated by respective Z and Z′ values of 0.59 and 0.63 in the screen; compounds with polarization values greater than three SDs from the mean were considered hits; a scatterplot from 10 plates (3,200 compounds) is shown in FIG. 2D.
Biochemical and biophysical analysis: Potency and MOA studies, including Mn^2+ sensitivity, are performed using the cGAS enzymatic assay. Dose response experiments are used to determine IC50 values under basal conditions (5 mM MgCl2, 100 μM ATP/GTP), and with the addition of physiological levels of Mn (0.2 mM) using human and mouse cGAS. Ligand optimization is driven by potency with the human enzyme; potency with mouse cGAS informs selection of an appropriate disease model for efficacy studies. Competition with ATP and GTP is assessed by comparing basal IC50 values to those in the presence of saturating ATP or GTP, and subsequently confirmed by measuring velocity vs. substrate at varying ATP or GTP levels. Inhibitor residence times (1/koff) are used as a key parameter for prioritizing compounds and driving SAR, because a longer residence time often results from an allosteric mechanism, and can also correlate with improved cellular activity. The cGAS enzymatic assay is used with the jump dilution method to measure residence times (inhibitor dissociation rates), as described for kinases using the very similar ADP assay. Biophysical methods, including SPR and TSA, are used as orthologous methods for residence time measurements and kd estimates.

[5] = test system: IFNβ expression in THP-1 cells; experiment: IFNβ ELISA in THP-1 cells; type: cell-based, human
Experimental: as §1

[6] = test system: interferon-sensitive gene (ISG) expression in THP1-dual cells; experiment: ISG mRNA expression by RT-PCR in THP1-dual cells; type: cell-based, human; details: 24 hours, normalized to β-actin
Experimental: FIG. 6A illustrates activity of IFNβ expression of the compounds of disclosure. FIG. 6B illustrates inhibition of reporter genes from cGAS/STING-driven promoters of compound 28 in THP1-dual cells. FIG. 6C illustrates the ISG mRNA expression of compound 28 in THP1-dual cells. Compound 28 in concentration of 200 μM was evaluated after 24 hours. The results were normalized to β-actin.

[7] = cGAS (30 nM), with Mn^2+, read-out: Inhibition cGAS + Mn^2+
[8] = cGAS (30 nM), read-out: Inhibition cGAS

T1 sequence (Q8N884 whole entry): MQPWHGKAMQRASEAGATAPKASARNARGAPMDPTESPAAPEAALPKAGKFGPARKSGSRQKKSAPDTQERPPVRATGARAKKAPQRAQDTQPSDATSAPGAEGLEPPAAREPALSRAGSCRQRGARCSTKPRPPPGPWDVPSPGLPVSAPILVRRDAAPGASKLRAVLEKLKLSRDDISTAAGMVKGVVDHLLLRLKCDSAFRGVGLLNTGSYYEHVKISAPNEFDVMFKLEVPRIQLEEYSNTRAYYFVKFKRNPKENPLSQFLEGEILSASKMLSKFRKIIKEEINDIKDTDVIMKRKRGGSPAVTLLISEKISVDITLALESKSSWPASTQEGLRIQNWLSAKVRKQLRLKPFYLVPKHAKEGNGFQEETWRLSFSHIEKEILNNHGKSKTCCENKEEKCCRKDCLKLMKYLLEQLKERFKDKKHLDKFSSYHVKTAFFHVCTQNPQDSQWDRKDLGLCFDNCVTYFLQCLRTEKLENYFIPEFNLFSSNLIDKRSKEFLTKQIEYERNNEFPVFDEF

Structure (SMILES): O=C(NCCCNc1nc(Nc2cccc(NC(=O)N3CCCC3)c2)ncc1I)c1cccs1 [BX-795, reference compound]
- inhibition of IRF3-dependent Luc expression [1]: dose-dependent inhibition
- inhibition of NFκB-driven SEAP expression ([2]; THP-1 Dual cells): did not inhibit
- effect on IRF3-driven Luc expression in THP1 cGAS KO cells stimulated with LPS (THP1 cGAS KO cells): inhibited with an expected potency

Structure (SMILES): CCN(CCO)CCCC(C)Nc1ccnc2cc(Cl)ccc12 (stereo not shown) [hydroxychloroquine, reference compound]
- cGAS-dependent cellular activity [1]: not observed

Structure (SMILES): CCN(CC)CCCC(C)Nc1c2ccc(Cl)cc2nc2ccc(OC)cc12 (stereo not shown) [quinacrine, reference compound]
- cGAS-dependent cellular activity [1]: not observed

Structure (SMILES): Cc1ccc(C(=O)Nc2ccc(S(=O)(=O)O)c3cc(S(=O)(=O)O)cc(S(=O)(=O)O)c23)cc1NC(=O)c1cccc(NC(=O)Nc2cccc(C(=O)Nc3cc(C(=O)Nc4ccc(S(=O)(=O)O)c5cc(S(=O)(=O)O)cc(S(=O)(=O)O)c45)ccc3C)c2)c1 [suramin, reference compound]
- cGAS-dependent cellular activity [1]: not observed

Further lines, with some results ahead:

- Kd (cGAS [3]): 2400 nM
- IC50 (cGAS [4]; 5 mM Mg^2+, 0.2 mM Mn^2+, read-out: IC50 (5 mM Mg^2+, 0.2 mM Mn^2+)): 19000 nM
- IC50 (cGAS [4]; 5 mM Mg^2+, read-out: IC50 (5 mM Mg^2+)): 2600 nM
- IC50 (cGAS [4]; [7]): > 10000 nM
- IC50 (cGAS [4]; [8]): 1000 to 10000 nM
- IC50 (cGAS [4]; read-out: IC50 in the cGAS enzymatic assay): 1260 nM
Structure (SMILES): CCc1nc(N2CCC[C@H]2C(=O)O)c2oc3ccccc3c2n1 [Compound 1, (2-ethylbenzofuro[3,2-d]pyrimidin-4-yl)-L-proline]

- IC50 ([1]; Homo sapiens, THP1-dual cells, read-out: Cellular IRF3-Luc IC50): 20000 nM
- IC50 ([2]; Homo sapiens, THP1-dual cells, read-out: Cellular NFκB-SEAP IC50): 9000 nM
- IC50 ([5]; Homo sapiens, read-out: Cellular IFNβ ELISA IC50): 13000 nM
- IC50 (cGAS [4]; 100 μM ATP/GTP, read-out: Enzymatic FP Std (100 μM ATP/GTP) IC50): 356 nM
- IC50 (cGAS [4]; 1 mM ATP/GTP, read-out: Enzymatic FP Physiological (1 mM ATP/GTP) IC50): 3250 nM
- IC50 (cGAS [4]; [8]): 100 to 500 nM
Structure (SMILES): Cc1nc(N2C[C@@H](CC(=O)Nc3ccncc3)C[C@H]2C(=O)O)c2oc3ccccc3c2n1 [Compound 28, (2S,4R)-1-(2-methylbenzofuro[3,2-d]pyrimidin-4-yl)-4-(2-oxo-2-(pyridin-4-ylamino)ethyl)pyrrolidine-2-carboxylic acid]
- inhibition of IFNβ expression [5]: reproducible inhibition; also recorded: inhibit IFNβ expression
- specificity: DNA- versus cGAMP-stimulated cells [5]: specific for DNA-stimulated cells; also recorded: more potent inhibition of cells stimulated with DNA than those stimulated with cGAMP
- ISG expression (fold decrease @ 200 μM) [6]: 2-3×

- IC50 (cGAS [4]; [7]): 1000 to 10000 nM
- IC50 (cGAS [4]; [8]): 100 to 500 nM
Structure (SMILES): Cc1nc(N2C[C@@H](Nc3n[nH]cc3C3CC3)C[C@H]2C(=O)O)c2oc3ccccc3c2n1 [Compound 53, (2S,4S)-4-((4-cyclopropyl-1H-pyrazol-3-yl)amino)-1-(2-methylbenzofuro[3,2-d]pyrimidin-4-yl)pyrrolidine-2-carboxylic acid]
- inhibition of IRF3-dependent Luc expression [1]: reproducible inhibition
- inhibition of IFNβ expression [5]: inhibit IFNβ expression

- IC50 (cGAS [4]; [7]): > 10000 nM
- IC50 (cGAS [4]; [8]): 1000 to 10000 nM
Structure (SMILES): Cc1cc(CC(=O)N[C@H]2C[C@@H](C(=O)O)N(c3nc(C)nc4c3oc3ccccc34)C2)ccn1 [Compound 67, (2S,4S)-1-(2-methylbenzofuro[3,2-d]pyrimidin-4-yl)-4-(2-(2-methylpyridin-4-yl)acetamido)pyrrolidine-2-carboxylic acid]

- IC50 (cGAS [4]; [7]): 1000 to 10000 nM
- IC50 (cGAS [4]; [8]): 500 to 1000 nM
Structure (SMILES): Cc1nc(N2CC[C@H]2C(=O)O)c2oc3ccccc3c2n1 [Compound 68, (S)-1-(2-methylbenzofuro[3,2-d]pyrimidin-4-yl)azetidine-2-carboxylic acid]

- IC50 (cGAS [4]; [7]): 1000 to 10000 nM
- IC50 (cGAS [4]; [8]): 500 to 1000 nM
Structure (SMILES): Cc1nc(N2CCC[C@H]2C(=O)O)c2oc3cc(F)ccc3c2n1 [Compound 69, (7-fluoro-2-methylbenzofuro[3,2-d]pyrimidin-4-yl)-L-proline]
